Experimental data reported in ChEMBL document CHEMBL1909046, “DrugMatrix in vitro pharmacology data”.

Legend:
[1] = biological target: Beta-2 adrenergic receptor (Homo sapiens, UniProt P07550); assay: DRUGMATRIX: Adrenergic beta2 radioligand binding (ligand: [3H] CGP-12177); type: cell membranes, CHO, Membrane; conditions: Not Active = under 50% inhibition at 10 µM
Glycine receptor = Glycine receptor (Rattus norvegicus, UniProt P22771+P24524+P07727+P20781); type: cell membranes, Wistar, Spinal cord, Membrane; note: in other assays of this panel Not Active means under 50% inhibition at 10 µM
Leukotriene C4 synthase = biological target: T1, Leukotriene C4 synthase (Cavia porcellus, UniProt A6XA80); type: tissue-based, Lung;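 note: enzyme inhibition assay of leukotriene C4 synthase, using LTA4 as the substrate; in other assays of this panel Not Active means under 50% inhibition at 10 µM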
T1 sequence (A6XA80 whole entry): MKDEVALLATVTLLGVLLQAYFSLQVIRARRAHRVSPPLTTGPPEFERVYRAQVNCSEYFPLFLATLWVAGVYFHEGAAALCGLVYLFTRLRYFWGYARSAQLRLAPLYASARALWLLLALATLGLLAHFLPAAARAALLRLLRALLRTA

[2] = biological target: Aldo-keto reductase family 1 member B1 (Rattus norvegicus, UniProt P07943); assay: biochemical; type: tissue-based, Lens of camera-type eye;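 note: inhibition of aldose reductase enzyme activity, measured with DL-glyceraldehyde as the substrate; in other assays of this panel Not Active means under 50% inhibition at 10 µM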
[3] = biological target: cGMP-specific 3',5'-cyclic phosphodiesterase (Homo sapiens, UniProt O76074); assay: DRUGMATRIX: Phosphodiesterase PDE5 enzyme inhibition (substrate: [3H]cGMP + cGMP); type: tissue-based, Platelet; conditions: Not Active = under 50% inhibition at 10 µM
[4] = biological target: Delta-type opioid receptor (Homo sapiens, UniProt P41143); type: cell membranes, HEK293, Membrane; note: in other assays of this panel Not Active means under 50% inhibition at 10 µM
Sequence of Delta-type opioid receptor (P41143 whole entry): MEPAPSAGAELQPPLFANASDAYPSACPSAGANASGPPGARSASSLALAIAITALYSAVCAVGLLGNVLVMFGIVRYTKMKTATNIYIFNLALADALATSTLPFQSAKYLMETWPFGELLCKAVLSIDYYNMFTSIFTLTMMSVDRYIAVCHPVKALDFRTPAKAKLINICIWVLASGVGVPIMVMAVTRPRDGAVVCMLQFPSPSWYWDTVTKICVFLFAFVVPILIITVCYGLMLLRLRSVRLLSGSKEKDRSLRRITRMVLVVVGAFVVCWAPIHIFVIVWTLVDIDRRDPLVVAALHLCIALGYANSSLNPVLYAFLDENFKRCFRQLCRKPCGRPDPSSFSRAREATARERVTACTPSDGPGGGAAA

[5] = biological target: T2, C-X-C chemokine receptor type 2 (Homo sapiens, UniProt P25025); type: cell membranes, Membrane; conditions: cho-k1; note: in other assays of this panel Not Active means under 50% inhibition at 10 µM
T2 sequence (P25025 whole entry): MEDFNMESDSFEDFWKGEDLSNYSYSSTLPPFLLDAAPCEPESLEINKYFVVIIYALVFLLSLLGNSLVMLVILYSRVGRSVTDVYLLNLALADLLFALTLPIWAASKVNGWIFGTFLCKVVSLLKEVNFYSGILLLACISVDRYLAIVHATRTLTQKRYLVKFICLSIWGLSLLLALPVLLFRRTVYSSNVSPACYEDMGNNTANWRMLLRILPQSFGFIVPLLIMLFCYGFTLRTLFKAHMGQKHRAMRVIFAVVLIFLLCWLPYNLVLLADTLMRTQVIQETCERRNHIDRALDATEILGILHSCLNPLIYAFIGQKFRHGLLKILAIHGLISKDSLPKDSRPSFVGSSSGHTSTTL

Molecule | IC50 ([1]; cho) | IC50 (Glycine receptor) | IC50 (Leukotriene C4 synthase) | IC50 [2] | IC50 ([3]; platelet) | IC50 ([4]; read-out: IC50) [µM] | Ki ([4]; read-out: Ki) [µM] | IC50 [5] | IC50 ([4]; hek293) | IC50 ([3]; read-out: IC50) [µM] | IC50 ([1]; read-out: IC50) [µM] | Ki ([1]; read-out: Ki) [µM] | IC50 ([2]; read-out: IC50) [µM] | Ki ([1]; cho) | Ki (Glycine receptor) | Ki (Leukotriene C4 synthase) | Ki [2] | Ki ([3]; platelet) | Ki ([4]; hek293) | Ki [5]
Clc1ccc(COC(Cn2ccnc2)c2ccc(Cl)cc2Cl)c(Cl)c1 (configuration not stated) [MICONAZOLE] | Not Active | Not Active | Not Active | Not Active | Not Active | 3.39 | 1.19 | Not Active | – | – | – | – | – | – | – | – | – | – | – | –
CC1CCC(NC(=O)N(CCCl)N=O)CC1 (configuration not stated) [SEMUSTINE] | Not Active | Not Active | Not Active | Not Active | Not Active | – | – | Not Active | Not Active | – | – | – | – | – | – | – | – | – | – | –
O=C1C[C@@H]2OCC=C3CN4CC[C@]56c7ccccc7N1[C@H]5[C@H]2[C@H]3C[C@H]46 [STRYCHNINE] | Not Active | – | Not Active | Not Active | Not Active | – | – | Not Active | Not Active | – | – | – | – | – | – | – | – | – | – | –
C[S+]([O-])c1ccc(-c2nc(-c3ccncc3)c(-c3ccc(F)cc3)[nH]2)cc1 (configuration not stated) [SB-203580] | Not Active | Not Active | Not Active | Not Active | – | – | – | Not Active | Not Active | 11.5 | – | – | – | – | – | – | – | – | – | –
CC(=N)S [THIOACETAMIDE] | Not Active | Not Active | Not Active | Not Active | Not Active | – | – | Not Active | Not Active | – | – | – | – | – | – | – | – | – | – | –
COC(=O)[C@H]1[C@H]2C[C@@H]3c4[nH]c5cc(OC)ccc5c4CCN3C[C@H]2C[C@@H](OC(=O)c2cc(OC)c(OC)c(OC)c2)[C@@H]1OC [RESERPINE] | Not Active | Not Active | Not Active | Not Active | Not Active | – | – | Not Active | Not Active | – | – | – | – | – | – | – | – | – | – | –
O=c1[nH]c(=O)n(C2CCCO2)cc1F (configuration not stated) [TEGAFUR] | Not Active | Not Active | Not Active | Not Active | Not Active | – | – | Not Active | Not Active | – | – | – | – | – | – | – | – | – | – | –
C[N+](C)(C)CCOC(=O)CCC(=O)OCC[N+](C)(C)C.[Cl-].[Cl-] [SUCCINYLCHOLINE CHLORIDE] | Not Active | Not Active | Not Active | Not Active | Not Active | – | – | Not Active | Not Active | – | – | – | – | – | – | – | – | – | – | –
CCCCC(=O)N(Cc1ccc(-c2ccccc2-c2nnn[nH]2)cc1)[C@H](C(=O)O)C(C)C | Not Active | Not Active | Not Active | Not Active | Not Active | – | – | Not Active | Not Active | – | – | – | – | – | – | – | – | – | – | –
CN1CCN(C2=Nc3cc(Cl)ccc3Nc3ccccc32)CC1 [CLOZAPINE] | Not Active | Not Active | Not Active | Not Active | Not Active | – | – | Not Active | Not Active | – | – | – | – | – | – | – | – | – | – | –
Oc1ccc2c3c1O[C@H]1[C@@H](O)CC[C@@]4(O)[C@@H](C2)N(CC2CCC2)CC[C@]314 [NALBUPHINE] | Not Active | Not Active | Not Active | Not Active | Not Active | – | – | Not Active | – | – | – | – | – | – | – | – | – | – | – | –
CN(C)C(=O)C(CCN1CCC(O)(c2ccc(Cl)cc2)CC1)(c1ccccc1)c1ccccc1 [LOPERAMIDE] | – | Not Active | Not Active | Not Active | Not Active | – | – | Not Active | – | – | 3.01 | 2.07 | – | – | – | – | – | – | – | –
O=C(O)c1ccccc1O [SALICYLIC ACID] | Not Active | Not Active | Not Active | Not Active | Not Active | – | – | Not Active | Not Active | – | – | – | – | – | – | – | – | – | – | –
Nc1ccc(S(=O)(=O)NC(=O)c2ccccc2)cc1 [SULFABENZAMIDE] | Not Active | Not Active | Not Active | Not Active | Not Active | – | – | Not Active | Not Active | – | – | – | – | – | – | – | – | – | – | –
C[C@@](Cc1ccc(O)c(O)c1)(NN)C(=O)O.O [CARBIDOPA] | Not Active | Not Active | Not Active | Not Active | Not Active | – | – | Not Active | Not Active | – | – | – | – | – | – | – | – | – | – | –
CCCCCCCCNC(C)C(O)c1ccc(SC(C)C)cc1 (configuration not stated) [SULOCTIDIL] | Not Active | Not Active | Not Active | Not Active | Not Active | – | – | Not Active | Not Active | – | – | – | – | – | – | – | – | – | – | –
CN1CCN(CCCN2c3ccccc3Sc3ccc(C(F)(F)F)cc32)CC1 [TRIFLUOPERAZINE] | Not Active | Not Active | Not Active | Not Active | Not Active | – | – | Not Active | Not Active | – | – | – | – | – | – | – | – | – | – | –
C[C@]12C=CC(=O)C=C1CC[C@@H]1[C@@H]2C(=O)C[C@@]2(C)[C@H]1CC[C@]2(O)C(=O)CO [PREDNISONE] | Not Active | Not Active | Not Active | Not Active | Not Active | – | – | Not Active | Not Active | – | – | – | – | – | – | – | – | – | – | –
OCCOCCN1CCN(C2=Nc3ccccc3Sc3ccccc32)CC1 [QUETIAPINE] | Not Active | Not Active | Not Active | Not Active | Not Active | – | – | Not Active | Not Active | – | – | – | – | – | – | – | – | – | – | –
CC(C)NC[C@H](O)COc1cccc2ccccc12 [LEVOPROPRANOLOL] | – | Not Active | Not Active | Not Active | Not Active | – | – | Not Active | Not Active | – | – | – | – | – | – | – | – | – | – | –
O=C(O)CCCCC1CCSS1 (stereo not drawn) [LIPOIC ACID, ALPHA] | Not Active | Not Active | Not Active | Not Active | Not Active | – | – | Not Active | Not Active | – | – | – | – | – | – | – | – | – | – | –
CC(C)NC[C@@H](O)COc1cccc2ccccc12 [DEXPROPRANOLOL] | – | Not Active | Not Active | Not Active | Not Active | – | – | Not Active | Not Active | – | – | – | – | – | – | – | – | – | – | –
Cc1ccc(C(=O)c2ccc(CC(=O)O)n2C)cc1 [TOLMETIN] | Not Active | Not Active | Not Active | – | Not Active | – | – | Not Active | Not Active | – | – | – | 2.15 | – | – | – | – | – | – | –
CC(=O)OCC(COC(C)=O)OC(C)=O [TRIACETIN] | Not Active | Not Active | Not Active | Not Active | Not Active | – | – | Not Active | Not Active | – | – | – | – | – | – | – | – | – | – | –
TRANSPLATIN | Not Active | Not Active | Not Active | Not Active | Not Active | – | – | Not Active | Not Active | – | – | – | – | Not Active | Not Active | Not Active | Not Active | Not Active | Not Active | Not Active
O=C(O)COc1ccc(C(=O)c2cccs2)c(Cl)c1Cl | Not Active | Not Active | Not Active | – | Not Active | – | – | Not Active | Not Active | – | – | – | 3.21 | – | – | – | – | – | – | –
CN1[C@@H]2CC[C@H]1C[C@@H](OC(c1ccccc1)c1ccccc1)C2 [BENZTROPINE] | Not Active | Not Active | Not Active | Not Active | Not Active | – | – | Not Active | Not Active | – | – | – | – | – | – | – | – | – | – | –
ZIRCONIUM(IV) CHLORIDE | Not Active | Not Active | Not Active | Not Active | Not Active | – | – | Not Active | Not Active | – | – | – | – | Not Active | Not Active | Not Active | Not Active | Not Active | Not Active | Not Active
